Experimental data from patent US20220073536A1 (Rigel Pharmaceuticals, Inc., priority 2003, published 2022).
pIC50: −log10 of the molar value.

Each compound was assayed on cultured human mast cells (CHMC) (assay: CHMC low cell density IgE activation: tryptase assay). Settings: Homo sapiens, Mast cell, low cell density CHMC, IgE activation, tryptase, 3 pt; read-out: LD Tryptase, CHMC, IgE, 3 pt.
Type: cell-based
Method: Inhibition of degranulation was measured at both low and high cell density by quantifying the release of the granule specific factors tryptase, histamine and hexosaminidase. Inhibition of release and/or synthesis of lipid mediators was assessed by measuring the release of leukotriene LTC4 and inhibition of release and/or synthesis of cytokines was monitored by quantifying TNF-α, IL-6 and IL-13. Tryptase and hexosaminidase were quantified using fluorogenic substrates as described in their respective examples. […] The protocols of the various assays are provided below.
Pellet CHMC cells (980 rpm, 10 min) and resuspend in pre-warmed MT. Add 65 ul of cells to each 96-well plate. Depending on the degranulation activity for each particular CHMC donor, load 1000-1500 cells/well. Mix four times followed by a 1 hr incubation at 37° C. […] Stimulate cells by adding 25 ul of 6× anti-IgE solution to the appropriate plates. Add 25 ul MT to un-stimulated control wells. Mix twice following addition of the anti-IgE. Incubate at 37° C. for 30 minutes. […] Spin plates at 1000 rpm for 10 min to pellet cells. Transfer 25 ul of supernatant to a 96-well black bottom plate and add 100 ul of freshly diluted tryptase substrate solution to each well. Incubate plates at room temperature for 30 min.

Compared with `CC1(C)Oc2ccc(Nc3nc(Nc4ccc5ccn(C(N)=O)c5c4)ncc3F)cc2NC1=O` [Compound 348], `COc1cc(Nc2nc(Nc3cc(Cl)cc(Cl)c3)ncc2F)cc(OC)c1` [Compound 352] is higher in pIC50: < 5.00 for the first, > 5.00 for the second. The second is the more potent here.

`COc1cc(Nc2nc(Nc3cc(C)c(Cl)c(C)c3)ncc2F)cc(OC)c1` [Compound 349] and `COc1cc(Nc2nc(Nc3cc(C)cc(C(F)(F)F)c3)ncc2F)cc(OC)c1` [Compound 353] cannot be ordered by pIC50: > 5.00 for the first, > 5.00 for the second.

In the case of `COc1cc(Nc2nc(Nc3cc(OC)cc(C(F)(F)F)c3)ncc2F)cc(OC)c1` [Compound 355], the pIC50 was > 5.00.

Same assay, conditions: Homo sapiens, Mast cell, low cell density CHMC, IgE activation, tryptase, 8 pt; read-out: LD Tryptase, CHMC, IgE, 8 pt

`COc1cc(Nc2nc(Nc3ccc4c(c3)OCCO4)ncc2F)cc(OC)c1` [Compound 351, N4-(3,5-Dimethoxyphenyl)-N2-(3,4-ethylenedioxyphenyl)-5-fluoro-2,4-pyrimidinediamine] and `COc1cc(Nc2ncc(F)c(Nc3ccc4c(c3)OCO4)n2)cc(OC)c1` [Compound 372, N2-(3,5-Dimethoxyphenyl)-5-fluoro-N4-(3,4-methylenedioxyphenyl)-2,4-pyrimidinediamine] cannot be ordered by pIC50: > 5.00 for the first, > 5.00 for the second.

`Fc1cnc(Nc2cc(Cl)cc(Cl)c2)nc1Nc1ccc2c(c1)OCCO2` [Compound 354] and `COc1cc(Cl)cc(Nc2ncc(F)c(Nc3ccc4c(c3)OCCO4)n2)c1` [Compound 370] cannot be ordered by pIC50: > 5.00 for the first, > 5.00 for the second.

`COc1cc(Nc2ncc(F)c(Nc3ccc4c(c3)OCCO4)n2)cc(C(F)(F)F)c1` [Compound 356, N4-(3,4-Ethylenedioxyphenyl)-5-fluoro-N2-(3-methoxy-5-trifluoromethylphenyl)-2,4-pyrimidinediamine] and `COc1cc(Cl)cc(Nc2ncc(F)c(Nc3ccc4c(c3)NC(=O)C(C)(C)O4)n2)c1` [Compound 369, N2-(3-Chloro-5-methoxyphenyl)-N4-(2,2-dimethyl-3-oxo-4H-benz[1,4]oxazin-6-yl)-5-fluoro-2,4-pyrimidinediamine] cannot be ordered by pIC50: > 5.00 for the first, > 5.00 for the second.

With `CNC(=O)c1cc2cccc(Nc3ncc(F)c(Nc4ccc5c(c4)OCO5)n3)c2[nH]1` [Compound 371, 5-Fluoro-N4-(3,4-methylenedioxyphenyl)-N2-[2-(N-methylamino)carbonylindol-7-yl]-2,4-pyrimidinediamine] the pIC50 was > 5.00.

Same assay, conditions: low cell density CHMC, IgE activation, tryptase, 3 pt; read-out: LD Tryptase, CHMC, IgE, 3 pt

`CNC(=O)n1ccc2ccc(Nc3ncc(F)c(Nc4ccc5c(c4)NC(=O)C(C)(C)O5)n3)cc21` [Compound 347, N4-(2,2-Dimethyl-3-oxo-4H-benz[1,4]oxazin-6-yl)-N2-[1-(N-methylaminocarbony)lindol-6-yl)-5-fluoro-2,4-pyrimidinediamine] and `Cc1cc(C)cc(Nc2ncc(F)c(Nc3ccc4c(c3)OC(F)(F)C(F)(F)O4)n2)c1` [Compound 362, N2-(3,5-Dimethyphenyl)-5-fluoro-N4-[3,4-(tetrafluoroethylenedioxy)phenyl]-2,4-pyrimidinediamine] cannot be ordered by pIC50: > 5.00 for the first, > 5.00 for the second.

`COc1cc(Nc2ncc(F)c(Nc3ccc4c(c3)OC(F)(F)C(F)(F)O4)n2)cc(OC)c1` [Compound 357] and `COc1cc(Nc2ncc(F)c(Nc3ccc4c(c3)OC(F)(F)C(F)(F)O4)n2)cc(C(F)(F)F)c1` [Compound 361] cannot be ordered by pIC50: > 5.00 for the first, > 5.00 for the second.

`Cc1cc(Nc2ncc(F)c(Nc3ccc4c(c3)OC(F)(F)C(F)(F)O4)n2)cc(C)c1Cl` [Compound 358] and `Fc1cnc(Nc2cc(Cl)cc(Cl)c2)nc1Nc1ccc2c(c1)OC(F)(F)C(F)(F)O2` [Compound 360] cannot be ordered by pIC50: < 5.00 for the first, < 5.00 for the second.

`Cc1cc(Nc2ncc(F)c(Nc3ccc4c(c3)OC(F)(F)C(F)(F)O4)n2)cc(C(F)(F)F)c1` [Compound 366, 5-Fluoro-N2-(3-methyl-5-trifluoromethyl)-N4-[3,4-(tetrafluoroethylenedioxy)phenyl]-2,4-pyrimidinediamine] and `Fc1cnc(Nc2ccc3c(c2)OCCO3)nc1Nc1ccc2c(c1)OC(F)(F)C(F)(F)O2` [Compound 367] cannot be ordered by pIC50: > 5.00 for the first, > 5.00 for the second.

Same assay, conditions: low cell density CHMC, IgE activation, tryptase, 8 pt; read-out: LD Tryptase, CHMC, IgE, 8 pt

Going from `COc1cc(Nc2ncc(F)c(Nc3ccc4c(c3)OC(F)(F)C(F)(F)O4)n2)cc(OC)c1` [Compound 357] to `Cc1cc(C)cc(Nc2ncc(F)c(Nc3ccc4c(c3)OC(F)(F)C(F)(F)O4)n2)c1` [Compound 362, N2-(3,5-Dimethyphenyl)-5-fluoro-N4-[3,4-(tetrafluoroethylenedioxy)phenyl]-2,4-pyrimidinediamine], the pIC50 falls from > 5.00 to < 5.00. The first is the more potent here.

`OCc1cc(CO)cc(Nc2ncc(F)c(Nc3ccc4c(c3)OC(F)(F)C(F)(F)O4)n2)c1` [Compound 359] and `Fc1cnc(Nc2ccc3c(c2)OCCO3)nc1Nc1ccc2c(c1)OC(F)(F)C(F)(F)O2` [Compound 367] cannot be ordered by pIC50: > 5.00 for the first, > 5.00 for the second.
